Measured values published in US11136328B2, “3,3-difluoropiperidine carbamate heterocyclic compounds as NR2B NMDA receptor antagonists” (Rugen Holdings (Cayman) Limited, priority 2015, dated 2021).

Key:
hERG channel = hERG channel (Homo sapiens (Human), UniProt Q12809); assay: hERG channel inhibition, whole cell patch clamp; assay type: cell-based; details: 10 μM compound
Experimental: The assay was performed on hERG channel stably expressed in HEK293 cells. The cells were cultured at 37° C. in a humidified CO2 incubator in the growth medium consisting of DMEM, 10% fetal bovine serum and antibiotics. Prior to the assay, the cells were seeded onto a 12 mm PDL-coated glass coverslip and cultured in a 35 mm Petri dish. After 16 to 40 hr culture, the cover slip was transferred into the chamber of OctaFlow perfusion system (ALA Instrument) and under a constant flow of extracellular solution (140 mM NaCl, 4 mM KCl, 1 mM MgCl2, 2 mM CaCl2, 10 mM HEPES, 10 mM D-glucose, pH 7.35, osmolarity 290). Whole cell patch clamping was performed with a glass micropipette filled with intracellular solution (120 mM KCl, 1.75 mM MgCl2, 5.4 mM CaCl2, 10 mM HEPES, 10 mM EGTA, and 4 mM ATP-K2, PH 7.2, osmolarity 310). Giga-seal was maintained during the test. The voltage control and current measurement were carried out using Axon amplifier 700B, Digidata 1440A and CLAMPEX10 software (Molecular Devices). Whole-cell hERG currents were recorded following the Petroski protocol: the cell was held at −80 mV, and the voltage step jumped from −80 to 30 mV and stay for 2 sec with a 20 ms prepulse at −40 mV. After depolarization, the voltage was decreased to −40 mV and stay for 2 sec, and returned back to −80 mV. Test compound was applied by quartz capillary tubes tip (200 μm inner diameter), and the flow rate was controlled at 2-3 ml/min with OctaFlow perfusion system. Different concentrations of the compound were applied to the cells for 5 min and the hERG current was measured three times before, during and after compound treatment. The data were analyzed using Clampfit 10 software (Molecular Devices) to generate IC50 values.

CYP2D6 = CYP2D6 (Homo sapiens (Human), UniProt P10635); assay: CYP P450 enzyme inhibition in pooled human liver microsomes; assay type: in vitro ADME; details: 10 μM compound, pooled HLM
Experimental: Those CYP isoforms and their corresponding probe substrates are as follows: CYP1A2 (phenacetin, 30 μM), CYP2C9 (tolutamide, 100 μM), CYP2C19 (S-mephenytoin, 40 μM), CYP2D6 (dextromethorphan, 5 μM) and CYP3A4 (midazolam, 1 μM). All probe substrates were used at concentrations near or below their Kms. For experiment, a reaction mixture of test compound at 10 μM or in serial dilution, CYP probe substrate described above and 0.2 mg/mL pooled HLM in phosphate buffer, pH 7.4 in a final volume of 200 μL was pre-incubated at 37° C. for 10 minutes in triplicate. The reaction was initiated by addition of NADPH at final concentration of 1 mM. The reaction was terminated after 10 minutes (CYP1A2, CYP2D6 and CYP3A4) or 30 minutes (CYP2C9 and CYP2C19) by addition of 100 μL ice-cold acetonitrile with internal standard (IS). The samples were then centrifuged at 13,000 rpm and the supernatants were injected to LC-MS/MS (Agilent Technologies) to quantify the concentration of the specific metabolites of the probe substrates formed by individual CYP450 isoforms. The inhibition ratio is calculated as: (Mt−M0)/Mwater×100% in which Mt and M0 represent the concentrations of the specific probe substrate metabolite, which was formed by individual CYP450 isoform, at the beginning and end of the reaction in the presence of test compound; while Mwater represents the concentration of the specific metabolite at the end of the reaction in the absence of test compound. Test compound concentration-dependent response data experiments performed in triplicate.

rats [1] = assay: Electroconvulsive Threshold Test (ECT); assay type: in vivo
Experimental: (§1) Test compound E1-8.2 was administered as the free base.
Rats were administered ECS (rectangular current: 0.6 ms pulse width, 1.5 s duration, 200 Hz) via earclip electrodes connected to a constant current shock generator (Ugo Basile: type 7801). Test compounds were administered by oral gavage (p.o.) 1 hour before the test at a dose volume of 5 mL/kg.
Treatment groups of 20 rats were exposed to ECS as follows: The first animal was exposed to 30 mA of ECS. […] (increases of 5 mA) until the first tonic convulsion was observed. Once the first tonic convulsion was observed, the intensity of ECS was decreased by 2 mA for the next animal and then decreased or increased by 2 mA from animal to animal depending on whether the previous animal convulsed or not. If the first animal did convulse (tonic convulsions) within 5 seconds, animal no 2 is exposed to 25 mA, etc. . . . (decreases of 5 mA) until the absence of tonic convulsions was observed. At this point, the intensity of ECS was increased by 2 mA for the next animal and then decreased or increased by 2 mA from animal to animal depending on whether the previous animal convulsed or not. The minimum current intensity applied is 5 mA and the maximum 95 mA. The first 5 animals serve to approach threshold current and were not included in the analysis. The results are presented as the mean current intensity administered to the final 15 animals of a group. The test was performed blind. A positive percent change indicates an anticonvulsant effect. A negative percent change indicates a proconvulsant effect. The test substance was evaluated at 4 doses, typically using 0.5% dimethylsulfoxide, 4% hydroxypropyl-b-cyclodextrin water as a vehicle, and administered p.o. 60 minutes before ECS, and compared with a vehicle control group. Diazepam (16 mg/kg p.o.), administered under the same experimental conditions, was used as reference substance. The experiment included 6 groups. Data with the test substance was analyzed by comparing treated groups with vehicle control using one-way ANOVA followed by Dunnett's t tests.

rats [2] = assay: Pentylenetetrazole (PTZ) Seizure Test; assay type: in vivo; details: 10 mg/kg p.o. 30 min before PTZ 100 mg/kg s.c.
Experimental: Rats, placed in individual macrolon cages (25×19×13 cm), were injected with pentylenetetrazole (PTZ) (100 mg/kg s.c.). The occurrence and latency of clonic and tonic convulsions and death were noted over a 30 minute period. 15 rats were studied per group. The test was performed blind.
as §1
Compounds were evaluated typically using 0.5% dimethylsulfoxide, 4% hydroxypropyl-b-cyclodextrin water as a vehicle at 1 or more doses (e.g., 1, 3 and 10 mg/kg), administered p.o. 30 minutes before PTZ, and compared with a vehicle control group. Diazepam (16 mg/kg p.o.), administered 60 minutes before PTZ, was used as reference substance. The experiment was performed over 2 separate sub-experiments with N=7 to 8 animals per group and per sub-experiment. Quantitative data (latencies) with the test substance was analyzed by comparing treated groups with vehicle control using Kruskal-Wallis test followed by Mann-Whitney U test. Quantitative data with the reference substance was analyzed using Mann-Whitney U test. Quantal data (frequencies) was analyzed by comparing treated groups with vehicle control using Fisher's Exact Probability tests (*=p<0.05; **=p<0.01; ***=p<0.001).

rats [3] = assay: Forced Swim Test in rats; assay type: in vivo, Wistar rats
Source text: (§2) The forced swim test (FST) also known at the behavioural despair test was used to evaluate antidepressant activity (Porsolt et al., 1977 Arch. Int. Pharmacodyn. 229: 327-336, Porsolt et al., 1977, Eur. J. Pharmacol. 47:379-391). Mice or rats that are forced to swim in a situation from which they cannot escape, rapidly become immobile. Drugs with antidepressant activity, such as imipramine, reduce the amount of time spent in the immobile state. Therefore, the amount of immobility time during a test conducted after drug administration represents a useful indicator of antidepressant activity (Lucki et al 2001 Psychopharmacology 155:315-322; Porsolt et al., 1977, Nature 266:730-732).
Male Wistar rats weighing 197-251 g were used for the rat test. Rats were evaluated according to a two-session procedure with a swimming session of 15 minutes on the first day of the experiment (Session 1) followed 24 hours later by a 5-minute swimming test (Session 2). […] Rats were placed in the water 24 h later for 5 minutes (Session 2) and the duration of immobility was measured.
Animals were observed by a blinded observer. […] The amount of time each animal spent in the immobile state (and the latency to the first bout of immobility) was recorded and used for statistical analysis of compound effect. […]

mice = assay: Forced Swim Test in mice; assay type: in vivo
Source text: as §2
Mice were evaluated in a single swimming test session of 6 minutes. Mice were placed in a transparent plastic cylinder 24 cm high with a diameter of 13 cm containing 10 cm of water with ambient temperature control generally from 22±2° C. Mice were placed in the water for 6 minutes and the duration of immobility during the last 4 minutes was measured.
Animals were observed by a blinded observer. […] The amount of time each animal spent in the immobile state (and the latency to the first bout of immobility) was recorded and used for statistical analysis of compound effect. Group differences were evaluated by student's t-test (reference substance) or one-way ANOVA followed by post-hoc Dunnett's test (test substances). […]
Male mice (strain NLMN) weighing 25-35 g were used for testing. […] The mice were videotaped for 6 minutes, and the last 4 minutes of video were analyzed by a blinded observer off-line. […] The amount of time each animal spent in the immobile state was recorded and used for statistical analysis of compound effect. Group differences were evaluated by student's t-test or one-way ANOVA followed by post-hoc Dunnett's test.
Mice were individually placed in a cylinder (height=24 cm; diameter=13 cm) containing 10 cm water (22° C.) from which they cannot escape. The mice were placed in the water for 6 minutes and the duration of immobility during the last 4 minutes was measured. […]

Chain of CYP2D6 (P10635 whole entry): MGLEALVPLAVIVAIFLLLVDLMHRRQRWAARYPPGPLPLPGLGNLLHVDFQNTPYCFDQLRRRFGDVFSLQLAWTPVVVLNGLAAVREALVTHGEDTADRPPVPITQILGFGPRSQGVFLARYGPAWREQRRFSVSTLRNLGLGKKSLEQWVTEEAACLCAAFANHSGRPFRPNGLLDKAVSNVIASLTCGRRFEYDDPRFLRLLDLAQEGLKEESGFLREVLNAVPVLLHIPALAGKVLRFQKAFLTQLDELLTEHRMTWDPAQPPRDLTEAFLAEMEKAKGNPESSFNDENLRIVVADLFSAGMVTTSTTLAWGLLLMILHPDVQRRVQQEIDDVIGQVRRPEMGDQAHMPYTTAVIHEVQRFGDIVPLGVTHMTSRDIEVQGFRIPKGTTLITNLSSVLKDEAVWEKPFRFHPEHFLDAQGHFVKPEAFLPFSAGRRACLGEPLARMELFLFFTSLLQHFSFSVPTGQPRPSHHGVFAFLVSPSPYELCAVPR
Chain of hERG channel (Q12809 whole entry): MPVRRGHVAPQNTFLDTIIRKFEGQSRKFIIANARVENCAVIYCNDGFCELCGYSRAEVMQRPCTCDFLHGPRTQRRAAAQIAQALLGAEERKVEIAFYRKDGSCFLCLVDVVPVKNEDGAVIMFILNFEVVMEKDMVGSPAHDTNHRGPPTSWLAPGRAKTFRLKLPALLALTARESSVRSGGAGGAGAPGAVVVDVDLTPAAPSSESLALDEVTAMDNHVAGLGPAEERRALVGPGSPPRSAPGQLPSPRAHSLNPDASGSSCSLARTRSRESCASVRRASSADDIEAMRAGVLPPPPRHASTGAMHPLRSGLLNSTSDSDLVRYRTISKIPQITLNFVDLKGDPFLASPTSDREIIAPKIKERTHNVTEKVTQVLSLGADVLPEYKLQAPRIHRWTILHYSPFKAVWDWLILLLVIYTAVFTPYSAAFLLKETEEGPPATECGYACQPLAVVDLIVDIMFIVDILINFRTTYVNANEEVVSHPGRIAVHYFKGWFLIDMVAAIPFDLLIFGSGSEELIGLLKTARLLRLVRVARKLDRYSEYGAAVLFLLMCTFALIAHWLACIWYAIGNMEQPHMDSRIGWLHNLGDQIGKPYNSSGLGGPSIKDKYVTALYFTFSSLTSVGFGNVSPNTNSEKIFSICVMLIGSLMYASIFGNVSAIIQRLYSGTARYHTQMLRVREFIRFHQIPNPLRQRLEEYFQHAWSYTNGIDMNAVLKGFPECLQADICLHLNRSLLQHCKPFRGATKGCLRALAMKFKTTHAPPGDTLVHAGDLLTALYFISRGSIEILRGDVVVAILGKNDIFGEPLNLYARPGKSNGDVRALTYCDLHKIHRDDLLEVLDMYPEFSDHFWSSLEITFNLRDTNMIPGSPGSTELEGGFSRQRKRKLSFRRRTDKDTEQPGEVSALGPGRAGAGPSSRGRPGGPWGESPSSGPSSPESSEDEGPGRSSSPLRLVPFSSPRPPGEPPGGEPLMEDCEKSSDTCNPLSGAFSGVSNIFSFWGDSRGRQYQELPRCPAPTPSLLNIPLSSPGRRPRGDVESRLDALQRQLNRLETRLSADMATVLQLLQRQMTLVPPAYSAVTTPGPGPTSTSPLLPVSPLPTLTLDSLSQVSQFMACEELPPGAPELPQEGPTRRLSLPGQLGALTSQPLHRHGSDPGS

Structure (SMILES) | hERG @ 10 μM (%) (hERG channel) | CYP2D6 @ 10 μM (%) (CYP2D6) | also measured
O=C(OCc1ccc(Cl)cc1)N1CC[C@H](CNc2nccn3cnnc23)C(F)(F)C1 [Compound E1-1.3, R-4-chlorobenzyl 4-(([1,2,4]triazolo[4,3-a]pyrazin-8-ylamino)methyl)-3,3-difluoropiperidine-1-carboxylate] | 19 | 37 | –
O=C(OCc1ccc(F)cc1)N1CC[C@H](CNc2nccn3cnnc23)C(F)(F)C1 [Compound E1-1.4, R-4-fluorobenzyl 4-(([1,2,4]triazolo[4,3-a]pyrazin-8-ylamino)methyl)-3,3-difluoropiperidine-1-carboxylate] | 11 | 19 | –
Cc1ccc(COC(=O)N2CC[C@H](CNc3cncc4nncn34)C(F)(F)C2)cc1 [Compound E1-2.2, R-4-methylbenzyl 4-(([1,2,4]triazolo[4,3-a]pyrazin-5-ylamino)methyl)-3,3-difluoropiperidine-1-carboxylate] | 32 | 18 | –
Cc1ccc(COC(=O)N2CC[C@H](CNc3ncc4cn[nH]c4n3)C(F)(F)C2)cc1 [Compound E1-8.2, (+)-R-4-methylbenzyl-4-((1H-pyrazolo[3,4-d]pyrimidin-6-ylamino)methyl)-3,3-difluoropiperidine-1-carboxylate] | 57 | 83 | activity on electroconvulsive threshold (rats [1]; 0.5 and 2 mpk p.o., free base): modest proconvulsant activity; activity on electroconvulsive threshold (rats [1]; 10 and 20 mpk p.o., free base): anticonvulsant activity
Cc1ccc(COC(=O)N2CC[C@H](CNc3nc4ccccn4n3)C(F)(F)C2)cc1 [Compound E1-9.2, (+)-R-4-methylbenzyl 4-(([1,2,4]triazolo[1,5-a]pyridin-2-ylamino)methyl)-3,3-difluoropiperidine-1-carboxylate] | 38 | 14 | –
Cc1ccc(COC(=O)N2CC[C@H](CNc3cnccn3)C(F)(F)C2)cc1 [Compound E1-21.2, R-4-methylbenzyl 3,3-difluoro-4-((pyrazin-2-ylamino)methyl)piperidine-1-carboxylate] | 27 | 97 | –
Cc1ccc(COC(=O)N2CC[C@H](CNc3cnc(C)cn3)C(F)(F)C2)cc1 [Compound E1-21.26, R-4-methylbenzyl 3,3-difluoro-4-((5-methylpyrazin-2-ylamino)-methyl)piperidine-1-carboxylate] | 39 | 32 | activity on electroconvulsive threshold (rats [1]; 3 and 10 mpk p.o., mesylate salt): anticonvulsant activity; change in latency to death (rats [2]): +31%; change in number of deaths vs vehicle controls (rats [2]): −82%
Cc1ccc(COC(=O)N2CC[C@@H](CNc3nccn4cnnc34)C(F)(F)C2)cc1 [Compound E2-1.2, (−)-S-4-methylbenzyl 4-(([1,2,4]triazolo[4,3-a]pyrazin-8-ylamino)methyl)-3,3-difluoropiperidine-1-carboxylate] | 22 | – | –
FC(F)(F)c1ccc(C(F)(F)CN2CCC(Nc3ncnc4[nH]ncc34)CC2)cc1 [LX-1, reference compound] | – | 93 | –
CN1C(=O)CN=C(c2ccccc2)c2cc(Cl)ccc21 [diazepam, reference compound] | – | – | activity on electroconvulsive threshold (rats [1]; 16 mpk p.o.): showed the expected anticonvulsant activity
CN(C)CCCN1c2ccccc2CCc2ccccc21 [imipramine] | – | – | antidepressant activity (immobility time) (rats [3]; 32 mpk i.p. 3 times: 24 h, 4 h and 30 min before Session 2): showed the expected antidepressant activity; antidepressant activity (immobility time) (rats [3]; 64 mpk p.o. 3 times: 24 h, 4 h and 60 min before Session 2): showed the expected antidepressant activity; antidepressant activity (immobility time) (mice; 32 mpk i.p. once 30 min before the test): showed the expected antidepressant activity; antidepressant activity (immobility time) (mice; 64 mpk p.o. once 60 min before the test): showed the expected antidepressant activity; antidepressant activity (immobility time) (mice; 128 mpk p.o. once 60 minutes before the test on Day 7): showed the expected antidepressant activity
Cn1c(=O)c2[nH]cnc2n(C)c1=O [theophylline, reference compound] | – | – | activity on electroconvulsive threshold (rats [1]; 128 mpk p.o.): showed the expected proconvulsant activity
